In ChEMBL document CHEMBL5291721, “A preclinical secondary pharmacology resource illuminates target-adverse drug reaction associations of marketed drugs” (Nat Commun, 2023):

Tests used:
[1] = biological target: Beta-1 adrenergic receptor (Homo sapiens, UniProt P08588); format: functional
D(3) dopamine receptor = D(3) dopamine receptor (Homo sapiens, UniProt P35462)
[2] = biological target: Glutamate receptor ionotropic, NMDA 1 (Rattus norvegicus, UniProt P35439)
[3] = biological target: T1, Muscarinic acetylcholine receptor M2 (Homo sapiens, UniProt P08172); format: functional, cell-based
T1 sequence (P08172 whole entry): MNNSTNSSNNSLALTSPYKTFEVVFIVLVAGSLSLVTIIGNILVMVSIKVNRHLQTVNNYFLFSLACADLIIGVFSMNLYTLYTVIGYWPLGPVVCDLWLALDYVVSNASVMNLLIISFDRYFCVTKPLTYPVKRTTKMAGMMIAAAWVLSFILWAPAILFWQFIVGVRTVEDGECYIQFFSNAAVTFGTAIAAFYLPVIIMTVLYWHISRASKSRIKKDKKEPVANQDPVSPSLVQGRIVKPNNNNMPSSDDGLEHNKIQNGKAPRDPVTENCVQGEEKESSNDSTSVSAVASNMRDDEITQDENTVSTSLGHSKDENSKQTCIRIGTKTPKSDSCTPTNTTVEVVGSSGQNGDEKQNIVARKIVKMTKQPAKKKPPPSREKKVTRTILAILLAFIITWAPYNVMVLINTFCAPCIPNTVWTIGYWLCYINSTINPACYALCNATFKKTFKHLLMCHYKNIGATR

Thromboxane A2 receptor = biological target: T2, Thromboxane A2 receptor (Homo sapiens, UniProt P21731)
T2 sequence (P21731 whole entry): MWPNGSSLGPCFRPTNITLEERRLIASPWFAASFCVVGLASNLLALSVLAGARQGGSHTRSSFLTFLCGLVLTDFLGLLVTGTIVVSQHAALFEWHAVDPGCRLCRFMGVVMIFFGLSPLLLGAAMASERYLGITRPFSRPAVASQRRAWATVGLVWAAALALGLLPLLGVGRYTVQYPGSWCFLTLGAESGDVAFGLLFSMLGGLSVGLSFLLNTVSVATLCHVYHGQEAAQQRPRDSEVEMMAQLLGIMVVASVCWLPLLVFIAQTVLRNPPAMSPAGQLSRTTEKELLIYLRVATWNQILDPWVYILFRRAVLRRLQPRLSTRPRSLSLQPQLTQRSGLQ

[4] = biological target: T3, Cholecystokinin receptor type A (Homo sapiens, UniProt P32238)
T3 sequence (P32238 whole entry): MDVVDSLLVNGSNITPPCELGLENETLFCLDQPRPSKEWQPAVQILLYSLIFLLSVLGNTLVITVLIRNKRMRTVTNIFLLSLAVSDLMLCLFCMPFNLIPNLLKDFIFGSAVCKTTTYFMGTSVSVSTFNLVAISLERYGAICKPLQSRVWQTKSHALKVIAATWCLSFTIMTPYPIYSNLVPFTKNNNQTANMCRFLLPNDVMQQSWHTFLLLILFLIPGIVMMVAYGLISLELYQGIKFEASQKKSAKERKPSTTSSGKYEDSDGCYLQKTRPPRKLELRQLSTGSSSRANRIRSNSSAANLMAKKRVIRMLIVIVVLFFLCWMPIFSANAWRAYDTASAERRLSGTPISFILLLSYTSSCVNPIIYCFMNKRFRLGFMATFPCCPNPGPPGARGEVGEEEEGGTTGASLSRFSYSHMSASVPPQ

Adenosine receptor A1 = biological target: T4, Adenosine receptor A1 (Homo sapiens, UniProt P30542)
T4 sequence (P30542 whole entry): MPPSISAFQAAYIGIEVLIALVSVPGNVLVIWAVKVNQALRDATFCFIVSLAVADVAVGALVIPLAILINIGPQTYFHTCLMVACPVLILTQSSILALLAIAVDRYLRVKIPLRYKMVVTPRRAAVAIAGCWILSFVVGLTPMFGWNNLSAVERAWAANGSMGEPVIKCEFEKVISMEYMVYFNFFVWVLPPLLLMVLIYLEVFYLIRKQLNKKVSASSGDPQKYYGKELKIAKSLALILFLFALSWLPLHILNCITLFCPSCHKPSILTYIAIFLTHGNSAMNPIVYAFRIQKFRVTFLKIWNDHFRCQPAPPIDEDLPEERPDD

Vasopressin V2 receptor = Vasopressin V2 receptor (Homo sapiens, UniProt P30518)
Sequence of Vasopressin V2 receptor (P30518 whole entry): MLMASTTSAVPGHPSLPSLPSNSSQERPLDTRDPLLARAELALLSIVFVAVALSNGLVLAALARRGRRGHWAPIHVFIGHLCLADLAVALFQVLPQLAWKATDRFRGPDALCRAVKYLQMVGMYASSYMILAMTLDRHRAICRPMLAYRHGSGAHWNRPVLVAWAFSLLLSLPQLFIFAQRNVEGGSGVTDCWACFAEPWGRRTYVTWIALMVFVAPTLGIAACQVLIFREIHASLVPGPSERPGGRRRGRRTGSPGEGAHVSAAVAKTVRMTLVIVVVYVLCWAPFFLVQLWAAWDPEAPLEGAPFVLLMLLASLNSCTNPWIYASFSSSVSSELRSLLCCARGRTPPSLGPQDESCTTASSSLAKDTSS

[5] = biological target: Sodium-dependent noradrenaline transporter (Homo sapiens, UniProt P23975)
Sequence of Sodium-dependent noradrenaline transporter (P23975 whole entry): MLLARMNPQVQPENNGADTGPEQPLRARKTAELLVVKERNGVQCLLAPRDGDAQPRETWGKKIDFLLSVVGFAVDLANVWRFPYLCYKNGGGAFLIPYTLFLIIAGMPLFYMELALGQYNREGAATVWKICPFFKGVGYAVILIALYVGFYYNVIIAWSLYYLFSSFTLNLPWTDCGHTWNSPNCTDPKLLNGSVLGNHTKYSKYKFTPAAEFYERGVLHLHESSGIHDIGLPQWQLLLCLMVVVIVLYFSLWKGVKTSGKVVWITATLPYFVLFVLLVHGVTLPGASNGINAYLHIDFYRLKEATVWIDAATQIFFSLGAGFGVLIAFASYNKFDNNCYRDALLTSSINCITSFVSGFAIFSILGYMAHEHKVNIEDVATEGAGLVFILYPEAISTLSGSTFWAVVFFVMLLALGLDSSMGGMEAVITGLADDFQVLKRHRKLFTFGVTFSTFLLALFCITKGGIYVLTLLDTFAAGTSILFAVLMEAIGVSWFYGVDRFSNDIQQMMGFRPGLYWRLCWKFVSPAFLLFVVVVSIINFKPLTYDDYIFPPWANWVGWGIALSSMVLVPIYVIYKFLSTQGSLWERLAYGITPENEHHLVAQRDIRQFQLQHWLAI

[6] = biological target: 5-hydroxytryptamine receptor 2B (Homo sapiens, UniProt P41595); format: functional, cell-based
Sequence of 5-hydroxytryptamine receptor 2B (P41595 whole entry): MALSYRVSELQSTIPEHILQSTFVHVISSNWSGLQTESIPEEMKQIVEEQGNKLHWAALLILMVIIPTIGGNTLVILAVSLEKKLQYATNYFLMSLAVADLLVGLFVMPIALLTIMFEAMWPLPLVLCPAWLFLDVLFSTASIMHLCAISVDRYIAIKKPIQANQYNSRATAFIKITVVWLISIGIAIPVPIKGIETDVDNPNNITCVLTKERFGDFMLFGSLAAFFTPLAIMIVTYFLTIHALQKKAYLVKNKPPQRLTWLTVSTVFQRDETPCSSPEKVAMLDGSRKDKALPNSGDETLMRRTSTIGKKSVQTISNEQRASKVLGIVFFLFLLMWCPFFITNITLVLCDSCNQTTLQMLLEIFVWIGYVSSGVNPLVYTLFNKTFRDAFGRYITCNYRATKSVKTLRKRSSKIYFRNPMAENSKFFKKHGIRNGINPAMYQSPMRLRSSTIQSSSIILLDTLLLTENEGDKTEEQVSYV

[7] = biological target: T5, Alpha-2A adrenergic receptor (Homo sapiens, UniProt P08913); format: functional, cell-based
T5 sequence (P08913 whole entry): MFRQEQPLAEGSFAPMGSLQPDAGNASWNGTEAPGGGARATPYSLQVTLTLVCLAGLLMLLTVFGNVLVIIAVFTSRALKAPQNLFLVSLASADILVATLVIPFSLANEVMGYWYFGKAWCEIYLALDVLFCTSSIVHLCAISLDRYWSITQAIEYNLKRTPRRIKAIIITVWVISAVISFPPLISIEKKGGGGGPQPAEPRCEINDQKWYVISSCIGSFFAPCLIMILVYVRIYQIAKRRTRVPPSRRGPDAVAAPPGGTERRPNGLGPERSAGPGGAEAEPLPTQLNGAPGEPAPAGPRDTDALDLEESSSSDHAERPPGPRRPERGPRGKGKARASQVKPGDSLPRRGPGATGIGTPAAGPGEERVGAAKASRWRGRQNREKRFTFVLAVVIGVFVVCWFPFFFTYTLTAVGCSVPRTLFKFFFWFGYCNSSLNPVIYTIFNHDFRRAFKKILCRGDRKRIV

[8] = biological target: T6, Type-1 angiotensin II receptor (Homo sapiens, UniProt P30556)
T6 sequence (P30556 whole entry): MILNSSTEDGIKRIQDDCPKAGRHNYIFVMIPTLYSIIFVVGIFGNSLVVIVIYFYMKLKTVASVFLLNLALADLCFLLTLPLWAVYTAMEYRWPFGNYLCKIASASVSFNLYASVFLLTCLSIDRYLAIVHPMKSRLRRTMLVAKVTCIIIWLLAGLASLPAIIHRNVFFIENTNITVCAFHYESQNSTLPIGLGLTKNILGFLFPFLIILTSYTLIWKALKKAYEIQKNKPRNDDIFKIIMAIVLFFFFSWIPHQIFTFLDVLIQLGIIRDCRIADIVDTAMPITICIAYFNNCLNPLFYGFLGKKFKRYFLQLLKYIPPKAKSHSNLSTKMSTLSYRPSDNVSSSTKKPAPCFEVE

[9] = biological target: Voltage-dependent L-type calcium channel subunit alpha-1C (Rattus norvegicus, UniProt P22002); format: functional
Sequence of Voltage-dependent L-type calcium channel subunit alpha-1C (P22002 whole entry): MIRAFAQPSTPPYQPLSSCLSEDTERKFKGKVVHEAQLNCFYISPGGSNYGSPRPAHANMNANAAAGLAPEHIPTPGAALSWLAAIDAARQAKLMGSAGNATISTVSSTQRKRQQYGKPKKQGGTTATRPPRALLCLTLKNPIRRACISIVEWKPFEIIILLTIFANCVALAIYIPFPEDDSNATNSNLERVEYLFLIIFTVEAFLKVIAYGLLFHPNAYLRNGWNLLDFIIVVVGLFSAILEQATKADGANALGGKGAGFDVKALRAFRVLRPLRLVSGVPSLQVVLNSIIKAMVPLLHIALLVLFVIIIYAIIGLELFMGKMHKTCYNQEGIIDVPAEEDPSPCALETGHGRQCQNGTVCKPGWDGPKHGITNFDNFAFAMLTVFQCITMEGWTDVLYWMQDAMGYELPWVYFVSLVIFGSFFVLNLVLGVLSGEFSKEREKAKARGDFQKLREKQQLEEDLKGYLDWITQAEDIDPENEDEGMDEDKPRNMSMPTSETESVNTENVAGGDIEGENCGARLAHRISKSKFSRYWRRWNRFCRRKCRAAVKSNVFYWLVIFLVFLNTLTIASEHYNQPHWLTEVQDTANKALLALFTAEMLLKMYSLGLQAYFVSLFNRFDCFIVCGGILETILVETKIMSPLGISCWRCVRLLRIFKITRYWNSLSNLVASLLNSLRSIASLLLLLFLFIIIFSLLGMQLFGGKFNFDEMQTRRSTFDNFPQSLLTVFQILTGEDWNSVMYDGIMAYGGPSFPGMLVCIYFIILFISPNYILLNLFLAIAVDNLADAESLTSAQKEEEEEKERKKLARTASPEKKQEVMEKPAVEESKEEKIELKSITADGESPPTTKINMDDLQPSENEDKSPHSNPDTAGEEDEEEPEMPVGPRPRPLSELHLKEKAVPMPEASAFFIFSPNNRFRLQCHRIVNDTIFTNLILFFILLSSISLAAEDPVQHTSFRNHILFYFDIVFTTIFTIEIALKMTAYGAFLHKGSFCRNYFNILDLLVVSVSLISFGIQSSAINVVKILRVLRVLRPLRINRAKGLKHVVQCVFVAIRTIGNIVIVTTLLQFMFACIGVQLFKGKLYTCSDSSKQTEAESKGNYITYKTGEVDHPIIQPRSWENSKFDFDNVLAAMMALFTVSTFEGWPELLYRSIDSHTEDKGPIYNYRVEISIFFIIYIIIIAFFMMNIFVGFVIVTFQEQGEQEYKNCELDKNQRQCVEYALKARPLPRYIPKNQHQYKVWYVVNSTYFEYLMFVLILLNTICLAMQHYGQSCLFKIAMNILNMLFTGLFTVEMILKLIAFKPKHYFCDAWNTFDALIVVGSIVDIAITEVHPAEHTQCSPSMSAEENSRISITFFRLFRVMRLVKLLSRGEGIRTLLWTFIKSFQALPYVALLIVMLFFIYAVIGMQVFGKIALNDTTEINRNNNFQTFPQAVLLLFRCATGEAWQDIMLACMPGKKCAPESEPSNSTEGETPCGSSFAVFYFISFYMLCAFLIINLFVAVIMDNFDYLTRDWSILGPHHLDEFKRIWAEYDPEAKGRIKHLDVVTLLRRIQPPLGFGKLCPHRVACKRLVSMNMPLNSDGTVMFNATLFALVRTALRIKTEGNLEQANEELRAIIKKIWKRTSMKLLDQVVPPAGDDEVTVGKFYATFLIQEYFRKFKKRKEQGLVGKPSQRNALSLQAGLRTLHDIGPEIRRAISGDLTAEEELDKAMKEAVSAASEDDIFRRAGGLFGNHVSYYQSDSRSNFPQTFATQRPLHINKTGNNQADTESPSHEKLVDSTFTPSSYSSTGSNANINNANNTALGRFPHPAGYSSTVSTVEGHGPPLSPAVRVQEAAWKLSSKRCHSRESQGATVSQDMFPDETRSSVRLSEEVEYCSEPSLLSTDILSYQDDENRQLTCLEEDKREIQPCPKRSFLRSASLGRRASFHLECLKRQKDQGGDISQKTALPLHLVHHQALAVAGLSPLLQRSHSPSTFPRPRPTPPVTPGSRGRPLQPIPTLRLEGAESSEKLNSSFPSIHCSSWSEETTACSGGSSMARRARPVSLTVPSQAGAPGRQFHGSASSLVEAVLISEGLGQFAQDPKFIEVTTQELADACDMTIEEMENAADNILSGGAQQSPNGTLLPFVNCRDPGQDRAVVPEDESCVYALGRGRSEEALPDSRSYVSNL
Further: assay procedure not described here.

Sequence of D(3) dopamine receptor (P35462 whole entry): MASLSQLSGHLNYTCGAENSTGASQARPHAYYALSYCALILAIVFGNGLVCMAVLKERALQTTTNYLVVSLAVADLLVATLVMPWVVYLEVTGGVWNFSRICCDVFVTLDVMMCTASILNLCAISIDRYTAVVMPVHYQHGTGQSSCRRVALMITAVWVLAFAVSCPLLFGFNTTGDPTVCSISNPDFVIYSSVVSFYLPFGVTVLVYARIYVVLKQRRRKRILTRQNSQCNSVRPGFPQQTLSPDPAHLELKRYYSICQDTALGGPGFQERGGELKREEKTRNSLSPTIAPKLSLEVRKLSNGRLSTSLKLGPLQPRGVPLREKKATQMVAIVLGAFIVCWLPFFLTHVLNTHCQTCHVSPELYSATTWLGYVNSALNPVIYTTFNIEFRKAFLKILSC
Sequence of Beta-1 adrenergic receptor (P08588 whole entry): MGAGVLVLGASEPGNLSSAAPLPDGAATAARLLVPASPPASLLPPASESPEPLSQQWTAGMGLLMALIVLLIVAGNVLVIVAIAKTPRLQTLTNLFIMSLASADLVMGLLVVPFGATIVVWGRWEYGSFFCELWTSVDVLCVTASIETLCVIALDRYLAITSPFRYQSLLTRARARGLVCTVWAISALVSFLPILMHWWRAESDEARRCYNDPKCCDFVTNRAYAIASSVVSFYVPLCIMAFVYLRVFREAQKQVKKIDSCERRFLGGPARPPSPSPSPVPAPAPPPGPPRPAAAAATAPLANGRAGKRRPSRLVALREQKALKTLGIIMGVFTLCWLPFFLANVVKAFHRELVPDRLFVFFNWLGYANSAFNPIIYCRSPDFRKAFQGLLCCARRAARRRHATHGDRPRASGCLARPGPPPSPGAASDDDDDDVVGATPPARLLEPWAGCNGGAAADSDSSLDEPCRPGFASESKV

Row | SMILES | AC50 [1] [µM] | AC50 (D(3) dopamine receptor) [µM] | AC50 [2] [µM] | AC50 [3] [µM] | AC50 (Thromboxane A2 receptor) [µM] | AC50 [4] [µM] | AC50 (Adenosine receptor A1) [µM] | AC50 (Vasopressin V2 receptor) [µM] | AC50 [5] [µM] | AC50 [6] [µM] | AC50 [7] [µM] | AC50 [8] [µM] | AC50 [9] [µM]
1 | CO[C@H]1/C=C/O[C@@]2(C)Oc3c(C)c(O)c4c(O)c(c(/C=N/N5CCN(C)CC5)c(O)c4c3C2=O)NC(=O)/C(C)=C\C=C\[C@H](C)[C@H](O)[C@@H](C)[C@@H](O)[C@@H](C)[C@H](OC(C)=O)[C@@H]1C [RIFAMPIN] | 28 | 11 | > 30 | > 30 | 17.4 | 17.1 | 18.8 | 30 | 20 | > 30 | > 30 | 19.4 | > 30
2 | CC(N)C12CC3CC(CC(C3)C1)C2 (configuration not stated) [RIMANTADINE] | > 10 | > 30 | > 10 | > 10 | > 10 | > 10 | > 10 | > 10 | > 10 | > 10 | > 10 | > 10 | > 10
3 | COc1cc2nc(N3CCN(C(=O)C4CCCO4)CC3)nc(N)c2cc1OC (configuration not stated) [TERAZOSIN] | > 10 | > 30 | > 10 | > 10 | > 30 | > 30 | > 30 | > 30 | > 10 | > 10 | > 30 | > 30 | –
4 | CN1C[C@H](C(=O)N[C@]2(C)O[C@@]3(O)[C@@H]4CCCN4C(=O)[C@H](Cc4ccccc4)N3C2=O)C=C2c3cccc4[nH]cc(c34)C[C@H]21 [ERGOTAMINE] | > 30 | 1.6 | – | > 30 | – | > 30 | > 30 | – | > 30 | – | 0.3 | > 30 | –
5 | C[C@]12C=CC(=O)N[C@@H]1CC[C@@H]1[C@@H]2CC[C@]2(C)[C@@H](C(=O)Nc3cc(C(F)(F)F)ccc3C(F)(F)F)CC[C@@H]12 [DUTASTERIDE] | > 10 | > 30 | > 10 | > 10 | > 10 | > 10 | > 10 | > 10 | > 10 | > 10 | > 10 | > 30 | > 10
6 | CCCN(CCC)C(=O)Cc1c(-c2ccc(Cl)cc2)nc2ccc(Cl)cn12 [ALPIDEM] | > 30 | > 30 | > 30 | > 30 | > 30 | > 30 | > 30 | > 30 | > 30 | > 30 | > 30 | > 30 | > 30
7 | CN(C)CC[C@@H](c1ccc(Cl)cc1)c1ccccn1 [DEXCHLORPHENIRAMINE] | > 30 | > 30 | > 30 | > 30 | > 30 | > 30 | > 30 | > 30 | 18 | > 30 | > 30 | > 30 | > 30
8 | CN1C(C(=O)Nc2ccccn2)=C(O)c2ccccc2S1(=O)=O [PIROXICAM] | > 10 | > 30 | > 10 | > 10 | > 10 | > 10 | > 10 | > 10 | > 10 | > 10 | > 10 | > 30 | > 10
9 | CCCC(CCC)C(=O)O [VALPROIC ACID] | > 10 | 4.7 | > 10 | > 10 | > 30 | > 30 | > 30 | > 30 | > 30 | > 10 | > 10 | > 30 | > 10
10 | CC(C(=O)O)c1ccc2c(c1)[nH]c1ccc(Cl)cc12 (configuration not stated) [CARPROFEN] | > 30 | > 30 | > 10 | > 10 | > 30 | > 30 | > 30 | > 30 | > 30 | > 10 | > 10 | > 30 | > 10
11 | COc1ccc(CC2c3cc(OC)c(OC)cc3CC[N+]2(C)CCC(=O)OCCCCCOC(=O)CC[N+]2(C)CCc3cc(OC)c(OC)cc3C2Cc2ccc(OC)c(OC)c2)cc1OC (configuration not stated) | > 30 | > 30 | > 30 | > 30 | > 30 | > 30 | > 30 | > 30 | 11.3 | > 30 | 3.6 | > 30 | > 30
12 | COc1ccccc1OCCNCC(O)COc1cccc2[nH]c3ccccc3c12 (configuration not stated) [CARVEDILOL] | – | 0.47 | 5.09 | > 10 | > 30 | > 30 | > 30 | > 30 | 3.99 | 0.532 | 3.09 | 0.255 | > 10
13 | CC(C)(C)NCC(O)c1cc(O)cc(O)c1 (configuration not stated) [TERBUTALINE] | – | – | – | – | > 30 | > 30 | > 30 | > 30 | > 30 | – | – | > 30 | –
14 | CCN(CC)CCNC(=O)c1c(C)[nH]c(/C=C2\C(=O)Nc3ccc(F)cc32)c1C [SUNITINIB] | – | 1.94 | > 30 | > 30 | 9.1 | 6.7 | 6.4 | 5.4 | 1.76 | 5.2 | 24 | 4.3 | > 30
